Results taken from ChEMBL document CHEMBL1131938, “Leucine-phenylalanine dipeptide-based N-mesyloxysuccinimides: synthesis of all four stereoisomers and their assay against serine proteases” (Bioorg Med Chem Lett, 1999).

What was measured:
[1] = molecular target: T1, Neutrophil elastase (Homo sapiens) (UniProt P08246); assay: Inhibitory activity against human neutrophil elastase after 30 min incubation; parameters: concentration or dose not given beside the values
T1 sequence (whole entry): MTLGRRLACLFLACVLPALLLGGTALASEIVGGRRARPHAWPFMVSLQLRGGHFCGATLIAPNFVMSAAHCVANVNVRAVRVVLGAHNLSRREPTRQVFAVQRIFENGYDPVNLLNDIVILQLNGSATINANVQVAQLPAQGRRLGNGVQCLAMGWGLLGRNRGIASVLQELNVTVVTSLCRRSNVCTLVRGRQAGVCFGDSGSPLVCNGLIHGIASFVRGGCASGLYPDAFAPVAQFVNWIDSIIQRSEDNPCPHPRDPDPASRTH

[2] = molecular target: Chymotrypsinogen A (Bos taurus) (UniProt P00766); assay: Inhibitory activity against Chymotrypsinogen enzyme was determined
[3] = molecular target: Chymotrypsinogen A (Bos taurus) (UniProt P00766); assay: Inhibitory activity against Chymotrypsinogen was determined

Row | SMILES | inhibition [1] [%] | k obs / 1 [2] [M⁻¹ s⁻¹] | k obs / 1 [3] [M⁻¹ s⁻¹]
1 | CC(=O)N[C@H](CC(C)C)C(=O)N[C@]1(Cc2ccccc2)CC(=O)N(OS(C)(=O)=O)C1=O | 72 | 244 | –
2 | CC(=O)N[C@]1(Cc2ccccc2)CC(=O)N(OS(C)(=O)=O)C1=O | 56 | 217 | –
3 | CCCCOC(=O)N[C@@H](CC(C)C)C(=O)N[C@]1(Cc2ccccc2)CC(=O)N(OS(C)(=O)=O)C1=O | 48 | 180 | –

More lines, now with the values ahead:

Row | inhibition [1] [%] | k obs / 1 [2] [M⁻¹ s⁻¹] | k obs / 1 [3] [M⁻¹ s⁻¹] | SMILES
4 | 24 | – | 28 | CC(=O)N[C@@H](CC(C)C)C(=O)N[C@@]1(Cc2ccccc2)CC(=O)N(OS(C)(=O)=O)C1=O
5 | 63 | 170 | – | CC(=O)N[C@@H](CC(C)C)C(=O)N[C@]1(Cc2ccccc2)CC(=O)N(OS(C)(=O)=O)C1=O
6 | 6 | 9 | – | CC(=O)N[C@H](CC(C)C)C(=O)N[C@@]1(Cc2ccccc2)CC(=O)N(OS(C)(=O)=O)C1=O
